In patent US5173297A, “Bacteriocin from Lactococcus lactis subspecies lactis” (Quest International Flavors & Food Ingredients Company …, priority 1991, dated 1992):

Assays:
Test in all cases: Spectrum of antimicrobial activity
Parameters in all cases: key: + = inhibition; - = no inhibition
Conditions in all cases: pure, titer 3200 AU/ml
L. casei 842 = type: cell-based, Lactobacillus casei
S. mutans V262 = type: cell-based, Streptococcus mutans
P. acidilactici D = type: cell-based, Pediococcus acidilactici
L. monocytogenes 08 = type: cell-based, Listeria monocytogenes
L. brevis 888 = type: cell-based, Lactobacillus brevis
L. monocytogenes 38 = type: cell-based, Listeria monocytogenes
L. fermentum 342 = type: cell-based, Lactobacillus fermentum
L. casei 326 = type: cell-based, Lactobacillus casei
L. monocytogenes 69 = type: cell-based, Listeria monocytogenes
B. subtilis RM125 = type: cell-based, Bacillus subtilis
S. mutans GS5 = type: cell-based, Streptococcus mutans
L. plantarum 346 = type: cell-based, Lactobacillus plantarum
P. acidilactici A = type: cell-based, Pediococcus acidilactici
L. monocytogenes 59 = type: cell-based, Listeria monocytogenes
P. pentosaceus FBB63C = type: cell-based, Pediococcus pentosaceus
Experimental: Colonies appearing on the agar plates were screened for antibacterial activity against a selected indicator, which usually predicted a wide antibacterial spectrum. The indicator chosen was Pediococcus pentosaceus FBB63C (Gonzalez, C. F., and B. S. Kunka, Appl. Environ. Microbiol. 53:2534-2538 (1987) and U.S. Pat. No. 4,883,673 to Gonzalez. Antibacterial activity was determined by picking colonies to replicate agar plates containing 1.9% sodium beta-glycerophosphate as buffer and after appearance of colonies overlaying with indicator.
To ascertain if the antibacterial substance is secreted into liquid medium, the cultures were grown in MRS broth and cell free filtrates of turbid cultures were made and the filtrate posted on a seeded semisolid agar overlay of the indicator. Antibacterial activity was quantitated by assigning arbitrary units. One arbitrary unit (AU) was defined as 5 μl of the culture supernatant yielding a definite, clear zone of inhibition on the indicator lawn. The titer was expressed as the reciprocal of the highest dilution of supernatant showing inhibition.

L. brevis 329 = type: cell-based, Lactobacillus brevis
B. subtilis amylase^+ = type: cell-based, Bacillus subtilis
P. acidilactici B = type: cell-based, Pediococcus acidilactici
L. monocytogenes 04 = type: cell-based, Listeria monocytogenes
P. acidilactici C = type: cell-based, Pediococcus acidilactici
L. monocytogenes 36 = type: cell-based, Listeria monocytogenes
P. acidilactici PAC 1.0 = type: cell-based, Pediococcus acidilactici
L. fermentum 701 = type: cell-based, Lactobacillus fermentum
L. lactis LLA 2.0 = type: cell-based, Lactococcus lactis
L. monocytogenes 62 = type: cell-based, Listeria monocytogenes
L. lactis LLA 1.0 = type: cell-based, Lactococcus lactis
L. plantarum 355 = type: cell-based, Lactobacillus plantarum

nisin [Nisin Pure]
inhibition of indicator strain L. casei 842 (L. casei 842): +
inhibition of indicator strain S. mutans V262 (S. mutans V262): -
inhibition of indicator strain P. acidilactici D (P. acidilactici D): +
inhibition of indicator strain L. monocytogenes 08 (L. monocytogenes 08): +
inhibition of indicator strain L. brevis 888 (L. brevis 888): +
inhibition of indicator strain L. monocytogenes 38 (L. monocytogenes 38): +
inhibition of indicator strain L. fermentum 342 (L. fermentum 342): +
inhibition of indicator strain L. casei 326 (L. casei 326): +
inhibition of indicator strain L. monocytogenes 69 (L. monocytogenes 69): +
inhibition of indicator strain B. subtilis RM125 (B. subtilis RM125): +
inhibition of indicator strain S. mutans GS5 (S. mutans GS5): +
inhibition of indicator strain L. plantarum 346 (L. plantarum 346): +
inhibition of indicator strain P. acidilactici A (P. acidilactici A): +
inhibition of indicator strain L. monocytogenes 59 (L. monocytogenes 59): +
inhibition of indicator strain P. pentosaceus FBB63C (P. pentosaceus FBB63C): +
inhibition of indicator strain L. brevis 329 (L. brevis 329): +
inhibition of indicator strain B. subtilis amylase^+ (B. subtilis amylase^+): +
inhibition of indicator strain P. acidilactici B (P. acidilactici B): +
inhibition of indicator strain L. monocytogenes 04 (L. monocytogenes 04): +
inhibition of indicator strain P. acidilactici C (P. acidilactici C): +
inhibition of indicator strain L. monocytogenes 36 (L. monocytogenes 36): +
inhibition of indicator strain P. acidilactici PAC 1.0 (P. acidilactici PAC 1.0): +
inhibition of indicator strain L. fermentum 701 (L. fermentum 701): +
inhibition of indicator strain L. lactis LLA 2.0 (L. lactis LLA 2.0): +
inhibition of indicator strain L. monocytogenes 62 (L. monocytogenes 62): +
inhibition of indicator strain L. lactis LLA 1.0 (L. lactis LLA 1.0): +
inhibition of indicator strain L. plantarum 355 (L. plantarum 355): +
